For this experiment, the system named is Endogenous Huntingtin Protein (capture with MW1 (expanded polyglutamine) or MAB2166 antibody). Nature of the experiment: Endogenous Huntingtin Protein Assay (ELISA-based Meso Scale Discovery electrochemiluminescence assay). The class given is cell-based. The following applies: MSD electrochemiluminescence platform. The method, boiled down: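 MSD electrochemiluminescence sandwich immunoassay: plates coated with 1 μg/mL MW1 or MAB2166 capture antibody, samples incubated overnight at 4 °C. Detection with rabbit monoclonal #5656S then SULFO-TAG anti-rabbit (each 0.25 μg/mL, 1 h RT).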

Compound `Cc1cn2cc(-c3cnc(-c4cnc(N5CCN(C)CC5)nn4)c(O)c3)cc(F)c2n1` [Compound 151, 5-(8-fluoro-2-methylimidazo[1,2-a]pyridin-6-yl)-2-[3-(4-methylpiperazin-1-yl)-1,2,4-triazin-6-yl]pyridin-3-ol] registered a half-inhibitory concentration (IC50) of at most 100 nM.

In turn, “2-(6-{[(3R,4S)-3-fluoro-2,2,6,6-tetramethylpiperidin-4-yl]oxy}pyridazin-3-yl)-5-(imidazo[1,2-a]pyrazin-6-yl)pyridin-3-ol and 2-(6-{[(3S,4R)-3-fluoro-2,2,6,6-tetramethylpiperidin-4-yl]oxy}pyridazin-3-yl)-5-(imidazo[1,2-a]pyrazin-6-yl)pyridin-3-ol [Compound 66]” registered an IC50 of 100 to 500 nM.

Turning to “5-(8-ethyl-2-methylimidazo[1,2-a]pyridin-6-yl)-2-(6-{[(3R,4S)-3-fluoro-2,2,6,6-tetramethylpiperidin-4-yl]oxy}pyridazin-3-yl)pyridin-3-ol and 5-(8-ethyl-2-methylimidazo[1,2-a]pyridin-6-yl)-2-(6-{[(3S,4R)-3-fluoro-2,2,6,6-tetramethylpiperidin-4-yl]oxy}pyridazin-3-yl)pyridin-3-ol [Compound 45]”, the IC50 is at most 100 nM.

`Oc1cc(-n2nccn2)cnc1-c1ccc(OC2CC3(CC3)NC3(CC3)C2)nn1` (stereo not drawn) [Compound 73, 2-{6-[(4-azadispiro[2.1.2^5.3^3]decan-9-yl)oxy]pyridazin-3-yl}-5-(2H-1,2,3-triazol-2-yl)pyridin-3-ol] returned an IC50 of 100 to 500 nM.

`CN(c1ccc(-c2ncc(-n3ccnc3)cc2O)nn1)C1CC(C)(C)NC(C)(C)C1` [Compound 15, 5-(1H-imidazol-1-yl)-2-{6-[methyl(2,2,6,6-tetramethylpiperidin-4-yl)amino]pyridazin-3-yl}pyridin-3-ol] yielded an IC50 of at most 100 nM.

Compound `CN(c1ccc(-c2ncc(-c3ccn(C)n3)cc2O)nn1)C1CC(C)(C)NC(C)(C)C1` [Compound 13, 5-(1-methyl-1H-pyrazol-3-yl)-2-{6-[methyl(2,2,6,6-tetramethylpiperidin-4-yl)amino]pyridazin-3-yl}pyridin-3-ol] displayed an IC50 of at most 100 nM.

Compound `CCC1CN(c2ccc(-c3ncc(-c4cn[nH]c4)cc3O)nn2)CCN1` (stereo not drawn) [Compound 119, 2-[6-(3-ethylpiperazin-1-yl)pyridazin-3-yl]-5-(1H-pyrazol-4-yl)pyridin-3-ol] showed an IC50 of at most 100 nM.

The compound `CC(C)[C@H]1CN(c2ncc(-c3ncc(-n4nccn4)cc3O)nn2)CCN1` [Compound 156, 2-{3-[(3S)-3-(propan-2-yl)piperazin-1-yl]-1,2,4-triazin-6-yl}-5-(2H-1,2,3-triazol-2-yl)pyridin-3-ol] showed an IC50 of 100 to 500 nM.

Turning to `Oc1cc(-c2cn[nH]c2)cnc1-c1ccc(N2CCNC(C3CC3)C2)nn1` (stereo not drawn) [Compound 123, 2-[6-(3-cyclopropylpiperazin-1-yl)pyridazin-3-yl]-5-(1H-pyrazol-4-yl)pyridin-3-ol], the IC50 is at most 100 nM.

For the compound `Cc1ccc(Nc2cnc(-c3ccc(N4C[C@@H](C)N[C@@H](C)C4)nn3)c(O)c2)cn1` [Compound 125, 2-{6-[(3R,5S)-3,5-dimethylpiperazin-1-yl]pyridazin-3-yl}-5-[(6-methylpyridin-3-yl)amino]pyridin-3-ol], the IC50 was 100 to 500 nM.

`[2H]C([2H])([2H])n1cc(-c2cnc(-c3ccc(N4CC[C@@H](NC(C)(C)C)C4)nn3)c(O)c2)cn1` [Compound 23, 2-{6-[(3R)-3-(tert-butylamino)pyrrolidin-1-yl]pyridazin-3-yl}-5-[1-(^2H3)methyl-1H-pyrazol-4-yl]pyridin-3-ol] gave an IC50 of at most 100 nM.

The compound `CN[C@@H]1CCN(c2ccc(-c3ncc(-c4cc(OC)ncn4)cc3O)nn2)C1` [Compound 70, 5-(6-methoxypyrimidin-4-yl)-2-{6-[(3R)-3-(methylamino)pyrrolidin-1-yl]pyridazin-3-yl}pyridin-3-ol] showed an IC50 of at most 100 nM.

In turn, “5-(8-ethyl-2-methylimidazo[1,2-b]pyridazin-6-yl)-2-(6-{[(3R,4S)-3-fluoro-2,2,6,6-tetramethylpiperidin-4-yl]oxy}pyridazin-3-yl)pyridin-3-ol and 5-(8-ethyl-2-methylimidazo[1,2-b]pyridazin-6-yl)-2-(6-{[(3S,4R)-3-fluoro-2,2,6,6-tetramethylpiperidin-4-yl]oxy}pyridazin-3-yl)pyridin-3-ol [Compound 60]” returned an IC50 of at most 100 nM.

`CC(C)(C)N[C@H]1CCN(c2ncc(-c3ncc(-c4c[nH]nc4F)cc3O)nn2)C1` [Compound 145, 2-{3-[(3S)-3-(tert-butylamino)pyrrolidin-1-yl]-1,2,4-triazin-6-yl}-5-(3-fluoro-1H-pyrazol-4-yl)pyridin-3-ol]: the IC50 was at most 100 nM.

Turning to `C[C@]12CC[C@](C)(C[C@@H](Oc3ccc(-c4ncc(-c5cncnc5)cc4O)nn3)C1)N2` [Compound 36, 2-(6-{[(1R,3s,5S)-1,5-dimethyl-8-azabicyclo[3.2.1]octan-3-yl]oxy}pyridazin-3-yl)-5-(pyrimidin-5-yl)pyridin-3-ol and 2-(6-{[(1S,3r,5R)-1,5-dimethyl-8-azabicyclo[3.2.1]octan-3-yl]oxy}pyridazin-3-yl)-5-(pyrimidin-5-yl)pyridin-3-ol], the half-maximal inhibitory concentration (IC50) was 500 to 1000 nM.

Regarding `Cc1nc2ccc(-c3cnc(-c4ccc(N5C[C@@H](C)N[C@@H](C)C5)nn4)c(O)c3)cn2n1` [Compound 99, 2-{6-[(3R,5S)-3,5-dimethylpiperazin-1-yl]pyridazin-3-yl}-5-(2-methyl[1,2,4]triazolo[1,5-a]pyridin-6-yl)pyridin-3-ol and 2-{6-[(3S,5R)-3,5-dimethylpiperazin-1-yl]pyridazin-3-yl}-5-(2-methyl[1,2,4]triazolo[1,5-a]pyridin-6-yl)pyridin-3-ol], the IC50 was 100 to 500 nM.

The compound `CC(C)(C)NC1CCN(c2ncc(-c3ncc(-n4nccn4)cc3O)nn2)C1` (stereo not drawn) [Compound 138, 2-{3-[3-(tert-butylamino)pyrrolidin-1-yl]-1,2,4-triazin-6-yl}-5-(2H-1,2,3-triazol-2-yl)pyridin-3-ol] showed a half-maximal inhibitory concentration (IC50) of at most 100 nM.

As to “2-(6-{[(3R,4S)-3-fluoro-2,2,6,6-tetramethylpiperidin-4-yl]oxy}pyridazin-3-yl)-5-(1H-pyrazol-4-yl)pyridin-3-ol and 2-(6-{[(3S,4R)-3-fluoro-2,2,6,6-tetramethylpiperidin-4-yl]oxy}pyridazin-3-yl)-5-(1H-pyrazol-4-yl)pyridin-3-ol [Compound 6]”, the 50% inhibitory concentration (IC50) is at most 100 nM.

The compound “2-(6-{[(3S,4S)-3-fluoro-2,2,6,6-tetramethylpiperidin-4-yl]amino}pyridazin-3-yl)-5-(1H-pyrazol-3-yl)pyridin-3-ol and 2-(6-{[(3R,4R)-3-fluoro-2,2,6,6-tetramethylpiperidin-4-yl]amino}pyridazin-3-yl)-5-(1H-pyrazol-3-yl)pyridin-3-ol [Compound 16]” displayed an IC50 of at most 100 nM.

Compound `[2H]C([2H])([2H])n1cc(-c2cnc(-c3ccc(O[C@@H]4C[C@@H](C)NC5(CC5)C4)nn3)c(O)c2)cn1` [Compound 85, 2-(6-{[(5R,7R)-5-methyl-4-azaspiro[2.5]octan-7-yl]oxy}pyridazin-3-yl)-5-[1-(^2H3)methyl-1H-pyrazol-4-yl]pyridin-3-ol] showed an IC50 of 500 to 1000 nM.

For the compound `Cc1cn2cc(-c3cnc(-c4ccc(N5C[C@@H](C)N[C@@H](C)C5)nn4)c(O)c3)ccc2n1` [Compound 92, 2-{6-[(3R,5S)-3,5-dimethylpiperazin-1-yl]pyridazin-3-yl}-5-(2-methylimidazo[1,2-a]pyridin-6-yl)pyridin-3-ol and 2-{6-[(3S,5R)-3,5-dimethylpiperazin-1-yl]pyridazin-3-yl}-5-(2-methylimidazo[1,2-a]pyridin-6-yl)pyridin-3-ol], the IC50 was at most 100 nM.

Regarding `[2H]C([2H])([2H])Oc1cc(-c2cnc(-c3ccc(N[C@@H]4CC(C)(C)NC(C)(C)[C@@H]4F)nn3)c(O)c2)ncn1` [Compound 25, 2-(6-{[(3R,4R)-3-fluoro-2,2,6,6-tetramethylpiperidin-4-yl]amino}pyridazin-3-yl)-5-{6-[(^2H3)methyloxy]pyrimidin-4-yl}pyridin-3-ol], the IC50 is at most 100 nM.

As to `CC1CN(c2ccc(-c3ncc(-c4cc(F)c5nn(C)cc5c4)cc3O)nn2)CCN1` (stereo not drawn) [Compound 97, 5-(7-fluoro-2-methyl-2H-indazol-5-yl)-2-[6-(3-methylpiperazin-1-yl)pyridazin-3-yl]pyridin-3-ol], the IC50 was at most 100 nM.

The compound `CC1CN(c2ccc(-c3ncc(NCc4cccnc4)cc3O)nn2)CCN1` (stereo not drawn) [Compound 110, 2-[6-(3-methylpiperazin-1-yl)pyridazin-3-yl]-5-{[(pyridin-3-yl)methyl]amino}pyridin-3-ol] gave an IC50 of 500 to 1000 nM.

Turning to “2-(6-{[(3R,4S)-3-fluoro-2,2,6,6-tetramethylpiperidin-4-yl]oxy}pyridazin-3-yl)-5-(2-methyl[1,2,4]triazolo[1,5-a]pyridin-6-yl)pyridin-3-ol and 2-(6-{[(3S,4R)-3-fluoro-2,2,6,6-tetramethylpiperidin-4-yl]oxy}pyridazin-3-yl)-5-(2-methyl[1,2,4]triazolo[1,5-a]pyridin-6-yl)pyridin-3-ol [Compound 55]”, the IC50 was at most 100 nM.

Turning to “5-(1H-pyrazol-4-yl)-2-{6-[(3R,5S)-3,4,5-trimethylpiperazin-1-yl]pyridazin-3-yl}pyridin-3-ol and 5-(1H-pyrazol-4-yl)-2-{6-[(3S,5R)-3,4,5-trimethylpiperazin-1-yl]pyridazin-3-yl}pyridin-3-ol [Compound 90]”, the IC50 is 100 to 500 nM.

In turn, `COc1cc(-c2cnc(-c3ccc(OC4CC(C)(C)NC(C)(C)C4)nn3)c(O)c2)ncn1` [Compound 74, 5-(6-methoxypyrimidin-4-yl)-2-{6-[(2,2,6,6-tetramethylpiperidin-4-yl)oxy]pyridazin-3-yl}pyridin-3-ol] displayed a half-maximal inhibitory concentration (IC50) of at most 100 nM.

For the origin of these results see US12577226B2, “Compounds for treating Huntington's disease” (PTC THERAPEUTICS, INC., priority 2019, dated 2026).
